In patent US20250388604A1, “Compounds and Their Use as PDE4 Activators” (Mironid Limited, priority 2022, published 2025):

The compounds below were run on m-IMCD3 cells (assay: Inhibition of PGE2-stimulated in vitro cyst formation in m-IMCD3 cells). Details: Mus musculus, mIMCD3, 144 h, 3 μM; mean cyst area, 100% for (DMSO + PGE2) and 0% for DMSO control; 6 days of culture; read-out: % Cyst area after incubation with 3 μM test compound.
Format: cell-based, mouse
Summary of the method: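 Mean cyst area after 6 days, expressed relative to DMSO+PGE2 (100%) and DMSO alone (0%), from z-stack images. Mouse m-IMCD3 spheroids grew in collagen I/Matrigel gels and received PGE2 (100 nM final) with test compound (0.1% DMSO) starting 18–24 h post-plating, media refreshed at day 2 or 3.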
Work on CCN1CC2CCC(C1)N2c1nc2c(s1)CN(C(=O)N[C@@H]1CCOc3ccccc31)CC2 [Example 295, N—((R)-chroman-4-yl)-2-(3-ethyl-3,8-diazabicyclo[3.2.1]octan-8-yl)-6,7-dihydrothiazolo[5,4-c]pyridine-5(4H)-carboxamide] yielded an activity at 3 µM of -4%.
Work on O=C(c1cccc2c1OCC2)N1CCc2nc(N3C4CCC3CNC4)sc2C1 [Example 230, (2-(3,8-diazabicyclo[3.2.1]octan-8-yl)-6,7-dihydrothiazolo[5,4-c]pyridin-5(4H)-yl)(2,3-dihydrobenzofuran-7-yl)methanone] yielded an activity at 3 µM of 22%.
With Cc1ccc(C(=O)N2CCc3nc(N4C5CCC4CNC5)sc3C2)c(C)c1 [Example 225, (2-(3,8-diazabicyclo[3.2.1]octan-8-yl)-6,7-dihydrothiazolo[5,4-c]pyridin-5(4H)-yl)(2,4-dimethylphenyl)methanone] the activity at 3 µM was -1%.
With O=C(COc1ccccc1OCCO)N1CCc2nc(N3C4CCC3CNC4)sc2C1 [Example 250, 1-(2-(3,8-diazabicyclo[3.2.1]octan-8-yl)-6,7-dihydrothiazolo[5,4-c]pyridin-5(4H)-yl)-2-(2-(2-hydroxyethoxy)phenoxy)ethan-1-one] the activity at 3 µM was 17%.
In the case of CC(C)c1ccccc1C(=O)N1CCc2nc(N3C4CCC3CNC4)sc2C1 [Example 215, (2-(3,8-diazabicyclo[3.2.1]octan-8-yl)-6,7-dihydrothiazolo[5,4-c]pyridin-5(4H)-yl)(2-isopropylphenyl)methanone], the activity at 3 µM is reported as 7%.
Work on O=C(c1cccc(OC(F)F)c1)N1CCc2nc(N3C4CCC3CNC4)sc2C1 [Example 206, (2-(3,8-diazabicyclo[3.2.1]octan-8-yl)-6,7-dihydrothiazolo[5,4-c]pyridin-5(4H)-yl)(3-(difluoromethoxy)phenyl)methanone] yielded an activity at 3 µM of 6%.
Work on CC1(C)CN(C(=O)[C@H](O)C2CCCC2)Cc2sc(N3C4CCC3CNC4)nc21 [Example 262, (2R)-1-(2-(3,8-diazabicyclo[3.2.1]octan-8-yl)-7,7-dimethyl-6,7-dihydrothiazolo[5,4-c]pyridin-5(4H)-yl)-2-cyclopentyl-2-hydroxyethan-1-one] yielded an activity at 3 µM of 23%.
With O=S(=O)(Cc1ccc(F)cc1)N1CCc2nc(N3CCNCC3)sc2C1 [Example 287, 5-((4-fluorobenzyl)sulfonyl)-2-(piperazin-1-yl)-4,5,6,7-tetrahydrothiazolo[5,4-c]pyridine] the activity at 3 µM was -3%.
O=C(c1ccc(OC(F)(F)F)cc1)N1CCc2nc(N3C4CCC3CNC4)sc2C1 [Example 208, (2-(3,8-diazabicyclo[3.2.1]octan-8-yl)-6,7-dihydrothiazolo[5,4-c]pyridin-5(4H)-yl)(4-(trifluoromethoxy)phenyl)methanone] was tested, and the activity at 3 µM was 8%.
O=C(c1ccccc1Cl)N1CCc2nc(N3C4CCC3CNC4)sc2C1 [Example 210, (2-(3,8-diazabicyclo[3.2.1]octan-8-yl)-6,7-dihydrothiazolo[5,4-c]pyridin-5(4H)-yl)(2-chlorophenyl)methanone] showed an activity at 3 µM of 11%.
Cc1cccc(C(=O)N2CCc3nc(N4C5CCC4CNC5)sc3C2)c1 [Example 195, (2-(3,8-diazabicyclo[3.2.1]octan-8-yl)-6,7-dihydrothiazolo[5,4-c]pyridin-5(4H)-yl)(m-tolyl)methanone] gave an activity at 3 µM of 1%.
With O=C(CC1CCCC1)N1CCc2nc(N3CCN4CCC[C@@H]4C3)sc2C1 [Example 272, (R)-2-cyclopentyl-1-(2-(hexahydropyrrolo[1,2-a]pyrazin-2(1H)-yl)-6,7-dihydrothiazolo[5,4-c]pyridin-5(4H)-yl)ethan-1-one] the activity at 3 µM was 16%.
Compound O=C(c1cccc2c1OCO2)N1CCc2nc(N3C4CCC3CNC4)sc2C1 [Example 234, (2-(3,8-diazabicyclo[3.2.1]octan-8-yl)-6,7-dihydrothiazolo[5,4-c]pyridin-5(4H)-yl)(benzo[d][1,3]dioxol-4-yl)methanone] has an activity at 3 µM of 1%.

Same assay, conditions: Mus musculus, mIMCD3, 144 h, 10 μM; mean cyst area, 100% for (DMSO + PGE2) and 0% for DMSO control; 6 days of culture; read-out: % Cyst area after incubation with 10 μM test compound
Work on COCC1(CC(=O)N2CCc3nc(N4C5CCC4CNC5)sc3C2)CCCC1 [Example 135, 1-(2-(3,8-diazabicyclo[3.2.1]octan-8-yl)-6,7-dihydrothiazolo[5,4-c]pyridin-5(4H)-yl)-2-(1-(methoxymethyl)cyclopentyl)ethan-1-one] yielded an activity at 10 µM of -6%.
Compound O=C(C(F)C1CCCC1)N1CCc2nc(N3C4CCC3CNC4)sc2C1 (stereo not drawn) [Example 34, 1-(2-(3,8-diazabicyclo[3.2.1]octan-8-yl)-6,7-dihydrothiazolo[5,4-c]pyridin-5(4H)-yl)-2-cyclopentyl-2-fluoroethan-1-one] has an activity at 10 µM of -2%.
O=C(COc1ccc(F)cc1)N1CCc2nc(N3C4CCC3CNC4)sc2C1 [Example 21, 1-(2-(3,8-diazabicyclo[3.2.1]octan-8-yl)-6,7-dihydrothiazolo[5,4-c]pyridin-5(4H)-yl)-2-(4-fluorophenoxy)ethan-1-one] was tested, and the activity at 10 µM was -1%.
CC1(C)CCCN1C(=O)N1CCc2nc(N3C4CCC3CNC4)sc2C1 [Example 120, (2-(3,8-diazabicyclo[3.2.1]octan-8-yl)-6,7-dihydrothiazolo[5,4-c]pyridin-5(4H)-yl)(2,2-dimethylpyrrolidin-1-yl)methanone] was tested, and the activity at 10 µM was 2%.
With CC1(C)CCC(C(=O)N2CCc3nc(N4C5CCC4CNC5)sc3C2)C1 (stereo not drawn) [Example 38, (2-(3,8-diazabicyclo[3.2.1]octan-8-yl)-6,7-dihydrothiazolo[5,4-c]pyridin-5(4H)-yl)(3,3-dimethylcyclopentyl)methanone] the activity at 10 µM was 8%.
CC(C)CC(=O)N1CCc2nc(N3C4CCC3CNC4)sc2C1 [Example 9, 1-(2-(3,8-diazabicyclo[3.2.1]octan-8-yl)-6,7-dihydrothiazolo[5,4-c]pyridin-5(4H)-yl)-3-methylbutan-1-one] gave an activity at 10 µM of 0%.
In the case of O=C(CC1CCCC1)N1CCc2nc(N3CCN[C@H](CO)C3)sc2C1 [Example 116, (S)-2-cyclopentyl-1-(2-(3-(hydroxymethyl)piperazin-1-yl)-6,7-dihydrothiazolo[5,4-c]pyridin-5(4H)-yl)ethan-1-one], the activity at 10 µM is reported as 55%.
Compound O=C(Cc1cnccn1)N1CCc2nc(N3C4CCC3CNC4)sc2C1 [Example 136, 1-(2-(3,8-diazabicyclo[3.2.1]octan-8-yl)-6,7-dihydrothiazolo[5,4-c]pyridin-5(4H)-yl)-2-(pyrazin-2-yl)ethan-1-one] has an activity at 10 µM of 18%.
O=C(COc1ccnc(F)c1)N1CCc2nc(N3C4CCC3CNC4)sc2C1 [Example 73, 1-(2-(3,8-diazabicyclo[3.2.1]octan-8-yl)-6,7-dihydrothiazolo[5,4-c]pyridin-5(4H)-yl)-2-((2-fluoropyridin-4-yl)oxy)ethan-1-one] was tested, and the activity at 10 µM was 3%.
Compound O=C(NCc1ccc(C(F)(F)F)cc1)N1CCc2nc(N3C4CCC3CNC4)sc2C1 [Example 56, 2-(3,8-diazabicyclo[3.2.1]octan-8-yl)-N-(4-(trifluoromethyl)benzyl)-6,7-dihydrothiazolo[5,4-c]pyridine-5(4H)-carboxamide] has an activity at 10 µM of -6%.
In the case of CC1(NC(=O)N2CCc3nc(N4C5CCC4CNC5)sc3C2)CCC1 [Example 124, 2-(3,8-diazabicyclo[3.2.1]octan-8-yl)-N-(1-methylcyclobutyl)-6,7-dihydrothiazolo[5,4-c]pyridine-5(4H)-carboxamide], the activity at 10 µM is reported as -12%.
O=C(CC(F)(F)F)N1CCc2nc(N3C4CCC3CNC4)sc2C1 [Example 26, 1-(2-(3,8-diazabicyclo[3.2.1]octan-8-yl)-6,7-dihydrothiazolo[5,4-c]pyridin-5(4H)-yl)-3,3,3-trifluoropropan-1-one] was tested, and the activity at 10 µM was 1%.
CC(C)[C@@H](C)C(=O)N1CCc2nc(N3C4CCC3CNC4)sc2C1 [Example 19, (2R)-1-(2-(3,8-diazabicyclo[3.2.1]octan-8-yl)-6,7-dihydrothiazolo[5,4-c]pyridin-5(4H)-yl)-2,3-dimethylbutan-1-one] was tested, and the activity at 10 µM was -2%.
With O=C(Nc1ccccc1)N1CCc2nc(N3C4CCC3CNC4)sc2C1 [Example 57, 2-(3,8-diazabicyclo[3.2.1]octan-8-yl)-N-phenyl-6,7-dihydrothiazolo[5,4-c]pyridine-5(4H)-carboxamide] the activity at 10 µM was -3%.
Compound COc1cc(F)ccc1OCC(=O)N1CCc2nc(N3C4CCC3CNC4)sc2C1 [Example 143, 1-(2-(3,8-diazabicyclo[3.2.1]octan-8-yl)-6,7-dihydrothiazolo[5,4-c]pyridin-5(4H)-yl)-2-(4-fluoro-2-methoxyphenoxy)ethan-1-one] has an activity at 10 µM of 2%.
In the case of O=C(CC1CCC(F)(F)CC1)N1CCc2nc(N3C4CCC3CNC4)sc2C1 [Example 2, 1-(2-(3,8-diazabicyclo[3.2.1]octan-8-yl)-6,7-dihydrothiazolo[5,4-c]pyridin-5(4H)-yl)-2-(4,4-difluorocyclohexyl)ethan-1-one], the activity at 10 µM is reported as 2%.
CC(Oc1ccccc1)C(=O)N1CCc2nc(N3C4CCC3CNC4)sc2C1 (stereo not drawn) [Example 23, 1-(2-(3,8-diazabicyclo[3.2.1]octan-8-yl)-6,7-dihydrothiazolo[5,4-c]pyridin-5(4H)-yl)-2-phenoxypropan-1-one] gave an activity at 10 µM of 0%.
In the case of CC(C)C(O)C(=O)N1CCc2nc(N3C4CCC3CNC4)sc2C1 (stereo not drawn) [Example 28, 1-(2-(3,8-diazabicyclo[3.2.1]octan-8-yl)-6,7-dihydrothiazolo[5,4-c]pyridin-5(4H)-yl)-2-hydroxy-3-methylbutan-1-one], the activity at 10 µM is reported as 3%.
O=C(C1CCCC1)N1CCc2nc(N3C4CCC3CNC4)sc2C1 [Example 22, (2-(3,8-diazabicyclo[3.2.1]octan-8-yl)-6,7-dihydrothiazolo[5,4-c]pyridin-5(4H)-yl)(cyclopentyl)methanone] gave an activity at 10 µM of -2%.
CC1(C)CN(C(=O)CC2CCC(F)(F)CC2)Cc2sc(N3CCNCC3)nc21 [Example 100, 2-(4,4-difluorocyclohexyl)-1-(7,7-dimethyl-2-(piperazin-1-yl)-6,7-dihydrothiazolo[5,4-c]pyridin-5(4H)-yl)ethan-1-one] showed an activity at 10 µM of -1%.
